# Legend:
# [1] = test system: MBNL1 and MBNL2 RNA splicing in DM1 myoblasts; assay: Splicing assay (RT-PCR) for RNAs from DM1 myoblasts; assay type: cell-based, human; conditions: 50 μM, 17 hours, RT-PCR
# Protocol: A. Total RNA was isolated from normal (SKMC) myoblasts, untreated DM1 myoblasts and DM1 myoblasts treated with 50 μM RCN-001 or 50 μM Pentamidine for 17 hours and subjected to RT-PCR analysis using the indicated primers sets for MBNL1 and MBNL2 RNAs. GAPDH RNA was amplified in parallel as an internal control. The results of one of three experiments are shown. B. The relative levels of exon inclusion was measured by densitometry and tabulated as mean % exon inclusion +/− standard deviation.
# Treatment of DM1 myoblasts with RCN-001 is also sufficient to rescue abnormal RNA splicing. Two RNAs were selected that show abnormal splicing in DM1 myoblasts: MBNL1 and MBNL2. DM1 myoblast were treated with 50 μM RCN-001 for 17 hours after which RNA was isolated and splice variants were analyzed as previously described (20-22).
# Splicing assays for RNAs isolated from human myoblasts. DM1 patient myoblasts was treated with 50 μM of RCN-001 or Pentamidine for 17 h as described by Warf et al, 2009. Total RNA was isolated using the RNAeasy mini kit (Qiagen Inc., USA) following manufacture's protocol. cDNA was synthesized using 5 μg of total RNA using First-Strand cDNA synthesis kit (GE Healthcare). PCR amplification was carried out using 150 ng of cDNA for 35 cycles for each target RNA. The primers used for PCR amplification are as follows—
# The relative band intensities were measured using densitometry analyses and the percent of exon inclusion was calculated as [exon inclusion/(exon inclusion+exon exclusion)]×100.
# DM1 splicing defects = conditions: literature reference 16 (Warf et al.); cited from earlier work
# [2] = test system: CUG-RNA foci in DM1 myoblasts; assay: FISH analysis of nuclear CUG-RNA foci in DM1 myoblasts; assay type: cell-based, human; conditions: 4 days, FISH
# Protocol: DM1 myoblasts were then treated with 10 μM of either RCN-001 or the vehicle (DMSO) for 4 days and then examined by FISH using a Cy3 (CAG)10 probe.
# Normal myoblasts were purchased from Lonza, Inc. DM1 myoblasts were a gift from Dr. Charles Thornton. Normal and DM1 myoblasts were maintained in SkGM Medium (Lonza, Inc.) containing 10% Fetal Bovine Serum and 1% Penicillin-Streptomycin, 5% CO2 at 37° C. Human Embryonic Kidney 293 Cells (293HEK) were maintained in Dulbecco's Modification of Eagle's Medium (DMEM) from Cellgro supplemented with 10% Fetal Bovine Serum and 1% Penicillin-Streptomycin, 5% CO2 at 37° C.
# CUG-RNA foci were detected by performing FISH on untreated DM1 myoblasts and DM1 myoblasts following treatment. For FISH analysis, DM1 myoblasts were plated on a 24-well clear bottom polystyrene plate with circular glass coverslips followed by treatment. Prior to FISH analysis, cells were fixed using 4% paraformaldehyde in 1×PBS for 20 min at room temperature. FISH analysis was performed using a Cy3 conjugated (CAG)10 oligonucleotide probe (Integrated DNA Technologies, Inc.) as described by Taneja et al, 1995 and Dansithong et al, 2005. CUG-RNA foci were observed as a red signal using fluorescence microscopy. Immunofluorescence was performed as described by Dansithong et al, 2008. Endogenous SHARP was detected using SHARP polyclonal antibodies from Bethyl at a dilution of 1:1000. The secondary antibodies conjugated with FITC (Invitrogen) were used at a 1:2000 dilution. Chloride channel 1 (Clcn1 a.k.a. CIC-1) was detected using CIC-1 polyclonal antibodies from Santa Cruz. The secondary antibodies conjugated with Alexa Flour 488 (Invitrogen) were used at a 1:2000 dilution. FISH analysis in mouse muscle section was carried out as described in Mancodi et al, 2000 (9).
# DM1 myoblasts [3] = assay: Viability of DM1 myoblasts by counting surviving cells; assay type: cell-based, human; conditions: 4 days, surviving cells vs vehicle control
# DM1 myoblasts [4] = assay: Toxicity by shape and size of the nuclei of DM1 myoblasts; assay type: cell-based, human; parameters: key: −: Nontoxic; +: 10% alterations in nuclei shape and size; ++: 20-30% alterations in nuclei shape and size; +++: 40-50% alterations in nuclei shape and size; ++++: 60% alterations in nuclei shape and size; +++++: very sick, almost no surviving cells; conditions: 4 days
smiles,measurement,setting,value
"N=C(N)c1ccc(OCCCCCOc2ccc(C(=N)N)cc2)cc1 [pentamidine, reference compound]",rescue of abnormal splicing of MBNL1 and MBNL2,[1],did not perform as well RCN-001
same,rescue of DM1 splicing defects shown by others,DM1 splicing defects,partially rescue DM1 splicing defects
"CCCCCCc1cc2cc(-c3cn4ccc(C)cc4n3)c(=O)oc2cc1O [RCN-013, 6-hexyl-7-hydroxy-3-(7-methylimidazo[1,2-a]pyridine-2-yl)-2H-chromen-2-one]",# of Foci (percentage) 0-1: Percentage of cells with no or 1 nuclear foci,"[2]; Table 4, 10 μM",13 percentage
same,# of Foci (percentage) >2: Percentage of cells with 2 or greater nuclear foci,"[2]; Table 4, 10 μM",87 percentage
same,Toxicity: Viable,"DM1 myoblasts [3]; Table 4, 10 μM",+++ (50-60% cell survival)
same,Toxicity: Toxic,"DM1 myoblasts [4]; Table 4, 10 μM",+++ (40-50% alterations in nuclei shape and size)
"CCCCCCc1cc2cc(C(=O)Nc3cccc(Br)c3)c(=O)oc2cc1O [RCN-018, N-(3-bromophenyl)-6-hexyl-7-hydroxy-2-oxo-2H-chromene-3-carboxamide]",Toxicity: Viable,"DM1 myoblasts [3]; Table 2, 10 μM",− (less than 10% cell survival)
same,Toxicity: Toxic,"DM1 myoblasts [4]; Table 2, 10 μM",+++++
"CCCCCCc1cc2cc(C(=O)Nc3cccc(OC)c3)c(=O)oc2cc1O [RCN-014, 6-hexyl-7-hydroxy-N-(3-methoxyphenyl)-2-oxo-2H-chromene-3-carboxamide]",# of Foci (percentage) 0-1: Percentage of cells with no or 1 nuclear foci,"[2]; Table 1, 10 μM",24 percentage
same,# of Foci (percentage) >2: Percentage of cells with 2 or greater nuclear foci,"[2]; Table 1, 10 μM",76 percentage
same,# of Foci (percentage) 0-1: Percentage of cells with no or 1 nuclear foci,"[2]; Table 2, 10 μM",24 percentage
same,# of Foci (percentage) >2: Percentage of cells with 2 or greater nuclear foci,"[2]; Table 2, 10 μM",76 percentage
same,Toxicity: Viable,"DM1 myoblasts [3]; Table 1, 10 μM",++++ (70-80% cell survival)
same,Toxicity: Viable,"DM1 myoblasts [3]; Table 2, 10 μM",++++ (70-80% cell survival)
same,Toxicity: Toxic,"DM1 myoblasts [4]; Table 1, 10 μM",+ (10% alterations in nuclei shape and size)
same,Toxicity: Toxic,"DM1 myoblasts [4]; Table 2, 10 μM",+ (10% alterations in nuclei shape and size)
"CCCCCCc1cc2cc(C(=O)Nc3ccc(Cl)c(Cl)c3)c(=O)oc2cc1O [RCN-017, N-(3,4-dichlorophenyl)-6-hexyl-7-hydroxy-2-oxo-2H-chromene-3-carboxamide]",Toxicity: Viable,"DM1 myoblasts [3]; Table 2, 10 μM",− (less than 10% cell survival)
same,Toxicity: Toxic,"DM1 myoblasts [4]; Table 2, 10 μM",+++++
"CCCCCCc1cc2cc(-c3nnc(-c4cccc(F)c4)o3)c(=O)oc2cc1O [RCN-004, 3-(5-(3-fluorophenyl)-1,3,4-oxadiazol-2-yl)-6-hexyl-7-hydroxy-2H-chromen-2-one]",# of Foci (percentage) 0-1: Percentage of cells with no or 1 nuclear foci,"[2]; Table 1, 10 μM",29 percentage
same,# of Foci (percentage) >2: Percentage of cells with 2 or greater nuclear foci,"[2]; Table 1, 10 μM",71 percentage
same,Toxicity: Viable,"DM1 myoblasts [3]; Table 1, 10 μM",++ (30-40% cell survival)
same,Toxicity: Toxic,"DM1 myoblasts [4]; Table 1, 10 μM",+++ (40-50% alterations in nuclei shape and size)
"CCc1cc2c(CN3CCN(S(=O)(=O)Cc4ccccc4)CC3)cc(=O)oc2cc1O [RCN-020, 4-((4-(benzylsulfonyl)piperazin-1-yl)methyl)-6-ethyl-7-hydroxy-2H-chromen-2-one]",# of Foci (percentage) 0-1: Percentage of cells with no or 1 nuclear foci,"[2]; Table 3, 10 μM",15 percentage
same,# of Foci (percentage) >2: Percentage of cells with 2 or greater nuclear foci,"[2]; Table 3, 10 μM",85 percentage
same,# of Foci (percentage) 0-1: Percentage of cells with no or 1 nuclear foci,"[2]; Table 4, 10 μM",15 percentage
same,# of Foci (percentage) >2: Percentage of cells with 2 or greater nuclear foci,"[2]; Table 4, 10 μM",85 percentage
same,Toxicity: Viable,"DM1 myoblasts [3]; Table 3, 10 μM",+++++ (90-100% cell survival)
same,Toxicity: Viable,"DM1 myoblasts [3]; Table 4, 10 μM",+++++ (90-100% cell survival)
same,Toxicity: Toxic,"DM1 myoblasts [4]; Table 3, 10 μM",−
same,Toxicity: Toxic,"DM1 myoblasts [4]; Table 4, 10 μM",−
"CCN(CC)c1ccc2cc(-c3nnc(-c4ccc(Cl)cc4)o3)c(=O)oc2c1 [RCN-007, 3-(5-(4-chlorophenyl)-1,3,4-oxadiazol-2-yl)-7-(diethylamino)-2H-chromen-2-one]",# of Foci (percentage) 0-1: Percentage of cells with no or 1 nuclear foci,"[2]; Table 1, 10 μM",17 percentage
same,# of Foci (percentage) >2: Percentage of cells with 2 or greater nuclear foci,"[2]; Table 1, 10 μM",83 percentage
same,Toxicity: Viable,"DM1 myoblasts [3]; Table 1, 10 μM",+++ (50-60% cell survival)
same,Toxicity: Toxic,"DM1 myoblasts [4]; Table 1, 10 μM",+++ (40-50% alterations in nuclei shape and size)
"CCCCCCc1cc2cc(C(=O)Nc3cccc(Cl)c3Cl)c(=N)oc2cc1O [RCN-016, N-(2,3-dichlorophenyl)-6-hexyl-7-hydroxy-2-imino-2H-chromene-3-carboxamide]",# of Foci (percentage) 0-1: Percentage of cells with no or 1 nuclear foci,"[2]; Table 2, 10 μM",12 percentage
same,# of Foci (percentage) >2: Percentage of cells with 2 or greater nuclear foci,"[2]; Table 2, 10 μM",88 percentage
same,Toxicity: Viable,"DM1 myoblasts [3]; Table 2, 10 μM",+++ (50-60% cell survival)
same,Toxicity: Toxic,"DM1 myoblasts [4]; Table 2, 10 μM",++ (20-30% alterations in nuclei shape and size)
"CCCCCCc1cc2cc(-c3cn4ccccc4n3)c(=O)oc2cc1O [RCN-011, 6-hexyl-7-hydroxy-3-(imidazo[1,2-a]pyridine-2-yl)-2H-chromen-2-one]",# of Foci (percentage) 0-1: Percentage of cells with no or 1 nuclear foci,"[2]; Table 4, 10 μM",17 percentage
same,# of Foci (percentage) >2: Percentage of cells with 2 or greater nuclear foci,"[2]; Table 4, 10 μM",83 percentage
same,Toxicity: Viable,"DM1 myoblasts [3]; Table 4, 10 μM",+++++ (90-100% cell survival)
same,Toxicity: Toxic,"DM1 myoblasts [4]; Table 4, 10 μM",−
"O=c1oc2ccccc2cc1-c1nnc(-c2cccc(Br)c2)o1 [RCN-008, 3-(5-(3-bromophenyl)-1,3,4-oxadiazol-2-yl)-2H-chromen-2-one]",# of Foci (percentage) 0-1: Percentage of cells with no or 1 nuclear foci,"[2]; Table 3, 10 μM",27 percentage
same,# of Foci (percentage) >2: Percentage of cells with 2 or greater nuclear foci,"[2]; Table 3, 10 μM",23 percentage
same,Toxicity: Viable,"DM1 myoblasts [3]; Table 3, 10 μM",+++ (50-60% cell survival)
same,Toxicity: Toxic,"DM1 myoblasts [4]; Table 3, 10 μM",+++ (40-50% alterations in nuclei shape and size)
"CCCCCCc1cc2cc(C(=O)Nc3ccc(Br)cc3)c(=O)oc2cc1O [RCN-015, N-(4-bromophenyl)-6-hexyl-7-hydroxy-2-oxo-2H-chromene-3-carboxamide]",# of Foci (percentage) 0-1: Percentage of cells with no or 1 nuclear foci,"[2]; Table 2, 10 μM",29 percentage
same,# of Foci (percentage) >2: Percentage of cells with 2 or greater nuclear foci,"[2]; Table 2, 10 μM",71 percentage
same,Toxicity: Viable,"DM1 myoblasts [3]; Table 2, 10 μM",+++ (50-60% cell survival)
same,Toxicity: Toxic,"DM1 myoblasts [4]; Table 2, 10 μM",+++ (40-50% alterations in nuclei shape and size)
"CCN(CC)c1ccc2cc(-c3nnc(-c4cc5ccccc5cc4O)o3)c(=O)oc2c1 [RCN-009, 7-(diethylamino)-3-(5-(3-hydroxynaphthalen-2-yl)-1,3,4-oxadiazol-2-yl)-2H-chromen-2-one]",# of Foci (percentage) 0-1: Percentage of cells with no or 1 nuclear foci,"[2]; Table 3, 10 μM",11 percentage
same,# of Foci (percentage) >2: Percentage of cells with 2 or greater nuclear foci,"[2]; Table 3, 10 μM",89 percentage
same,Toxicity: Viable,"DM1 myoblasts [3]; Table 3, 10 μM",++ (30-40% cell survival)
same,Toxicity: Toxic,"DM1 myoblasts [4]; Table 3, 10 μM",+++ (40-50% alterations in nuclei shape and size)
"CCCCCCc1cc2cc(C(N)=O)/c(=N/c3ccccc3OC)oc2cc1O [RCN-019, (Z)-6-hexyl-7-hydroxy-2-((2-methoxyphenyl)imino)-2H-chromene-3-carboxamide]",# of Foci (percentage) 0-1: Percentage of cells with no or 1 nuclear foci,"[2]; Table 2, 10 μM",14 percentage
same,# of Foci (percentage) >2: Percentage of cells with 2 or greater nuclear foci,"[2]; Table 2, 10 μM",86 percentage
same,Toxicity: Viable,"DM1 myoblasts [3]; Table 2, 10 μM",+++ (50-60% cell survival)
same,Toxicity: Toxic,"DM1 myoblasts [4]; Table 2, 10 μM",++ (20-30% alterations in nuclei shape and size)
CCCCCCc1cc2cc(-c3nnc(-c4ccc([N+](=O)[O-])cc4)o3)c(=O)oc2cc1O [RCN--005],# of Foci (percentage) 0-1: Percentage of cells with no or 1 nuclear foci,"[2]; Table 1, 10 μM",14 percentage
same,# of Foci (percentage) >2: Percentage of cells with 2 or greater nuclear foci,"[2]; Table 1, 10 μM",86 percentage
same,Toxicity: Viable,"DM1 myoblasts [3]; Table 1, 10 μM",+ (10-20% cell survival)
same,Toxicity: Toxic,"DM1 myoblasts [4]; Table 1, 10 μM",++++ (60% alterations in nuclei shape and size)
CCCCCCc1cc2cc(-c3csc(-c4nc(-c5cc6cc(CCCCCC)c(O)cc6oc5=O)cs4)n3)c(=O)oc2cc1O [RCN-012],# of Foci (percentage) 0-1: Percentage of cells with no or 1 nuclear foci,"[2]; Table 4, 10 μM",14 percentage
same,# of Foci (percentage) >2: Percentage of cells with 2 or greater nuclear foci,"[2]; Table 4, 10 μM",86 percentage
same,Toxicity: Viable,"DM1 myoblasts [3]; Table 4, 10 μM",+++++ (90-100% cell survival)
same,Toxicity: Toxic,"DM1 myoblasts [4]; Table 4, 10 μM",−
